The values below come from publication PMC11173618, “C2-Symmetrical Terphenyl Derivatives as Small Molecule Inhibitors of Programmed Cell Death 1/Programmed Death Ligand 1 Protein–Protein Interaction” (Molecules, 2024).

Molecules are shown by their SMILES.

The target in this experiment is T1, PD-1/PD-L1 complex (Homo sapiens, UniProt Q9NZQ7).
T1 construct: purchased cis-bio
Description: HTRF assay of PD-1/PD-L1 complex inhibition (cis-bio kit). The format is binding. The following applies: for inhibition at 0.5 µM / inhibition at 5 µM: 1 h, scouting mode, 5 nM PD-L1, 50 nM PD-1, read-out: HTRF [%] (percentage of dissociated PD-1/PD-L1 complex); for inhibition at 0.5 µM: inhibitor 0.5 µM; for inhibition at 5 µM: inhibitor 5 µM. The procedure:
All synthesized molecules were tested in the homogeneous time-resolved fluorescence (HTRF) assay to assess their activity as inhibitors of the PD-1/PD-L1 complex (Table 1, Table 2 and Table 3). This evaluation was conducted in scouting modes, employing concentrations of 5 μM and 0.5 μM. Based on the obtained measurements, the IC50 values were estimated for each tested compound.
The certified cis-bio assay kit was used to perform the HTRF assay. Following the standard protocol, the measurement was carried out at a 20 µL final volume with a 5 nM concentration of PD-L1 and a 50 nM concentration of PD-1 in the final formulation. […] The plate was incubated for 1 h and then read on an HTRF-certified Tecan Spark 20M microplate reader. Output data were subjected to background subtraction on negative control (without PD-1) and normalization in correlation to the positive control (without inhibitor) and were then averaged. The resulting data points were then fitted with Hill’s equation to generate IC50 using Mathematica 12. […]
(TR-FRET usually uses a lanthanide donor and a delayed reading to cut background.)

T1 sequence (Q9NZQ7 19-238 limits assumed, one chain of several): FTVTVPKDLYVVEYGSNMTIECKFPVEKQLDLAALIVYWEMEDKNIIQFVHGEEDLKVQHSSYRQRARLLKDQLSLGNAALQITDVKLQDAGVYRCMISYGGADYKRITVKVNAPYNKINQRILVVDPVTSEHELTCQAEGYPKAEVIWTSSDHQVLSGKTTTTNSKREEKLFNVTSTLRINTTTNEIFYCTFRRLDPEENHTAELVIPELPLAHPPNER

As to `CC(=O)NCCNCc1cccc(OCc2cccc(-c3cc(C)cc(-c4cccc(COc5cccc(CNCCNC(C)=O)c5)c4)c3)c2)c1` [Compound 4a, N,N’-(((((((5′-methyl-[1,1′:3′,1′′-terphenyl]-3,3′′-diyl)bis(methylene))bis(oxy))bis(3,1-phenylene))bis(methylene))bis(azanediyl))bis(ethane-2,1-diyl))diacetamide], the inhibition at 0.5 µM worked out at 80.4 ± 18.8% and the inhibition at 5 µM was 56.8 ± 15.4%.
As for `CC(=O)NCCNCc1cccc(OCc2cccc(-c3cc(C)cc(-c4cccc(COc5cccc(CNCCNC(C)=O)c5Br)c4)c3)c2)c1Br` [Compound 4c, N,N’-(((((((5′-methyl-[1,1′:3′,1′′-terphenyl]-3,3′′-diyl)bis(methylene))bis(oxy))bis(2-bromo-3,1-phenylene))bis(methylene))bis(azanediyl))bis(ethane-2,1-diyl))diacetamide], the inhibition at 0.5 µM amounted to 88.6 ± 14% and the inhibition at 5 µM amounted to 70.8 ± 18.8%.
Consider `CC(=O)NCCNCc1cccc(OCc2cccc(-c3cc(C)cc(-c4cccc(COc5cccc(CNCCNC(C)=O)c5)c4F)c3)c2F)c1` [Compound 4d, N,N’-(((((((2,2′′-difluoro-5′-methyl-[1,1′:3′,1′′-terphenyl]-3,3′′-diyl)bis(methylene))bis(oxy))bis(3,1-phenylene))bis(methylene))bis(azanediyl))bis(ethane-2,1-diyl))diacetamide], for which the inhibition at 0.5 µM turned out to be 89.9 ± 19.8% and the inhibition at 5 µM turned out to be 22.5 ± 9.17%.
In the case of `CC(=O)NCCNCc1cccc(OCc2cccc(-c3cc(C)cc(-c4cccc(COc5cccc(CNCCNC(C)=O)c5Br)c4C)c3)c2C)c1Br` [Compound 4e, N,N’-(((((((2,2′′,5′-trimethyl-[1,1′:3′,1′′-terphenyl]-3,3′′-diyl)bis(methylene))bis(oxy))bis(2-bromo-3,1-phenylene))bis(methylene))bis(azanediyl))bis(ethane-2,1-diyl))diacetamide], the inhibition at 0.5 µM is 93.9 ± 5.5% and the inhibition at 5 µM worked out at 94.2 ± 2.3%. For the same molecule, where the note is “estimated from scouting data (5 and 0.5 µM) by translation of the Hill fit of 7b, 7j, 7m”, the “IC50 Estimated” value is recorded as “not active”.
On to `CC(=O)NCCNCc1cc(F)c(OCc2cccc(-c3cc(C)cc(-c4cccc(COc5cc(F)c(CNCCNC(C)=O)cc5F)c4C)c3)c2C)cc1F` [Compound 4f, N,N’-(((((((2,2′′,5′-trimethyl-[1,1′:3′,1′′-terphenyl]-3,3′′-diyl)bis(methylene))bis(oxy))bis(2,5-difluoro-4,1-phenylene))bis(methylene))bis(azanediyl))bis(ethane-2,1-diyl))diacetamide], for which the inhibition at 0.5 µM was 85.7 ± 10.9% and the inhibition at 5 µM was found to be 28.2 ± 1.5%.
For `COc1cccc(CNCCNC(C)=O)c1OCc1ccccc1-c1cc(C)cc(-c2ccccc2COc2c(CNCCNC(C)=O)cccc2OC)c1` [Compound 5a, N,N’-(((((((5′-methyl-[1,1′:3′,1′′-terphenyl]-2,2′′-diyl)bis(methylene))bis(oxy))bis(3-methoxy-2,1-phenylene))bis(methylene))bis(azanediyl))bis(ethane-2,1-diyl))diacetamide], the inhibition at 0.5 µM worked out at 84.3 ± 13.1% and the inhibition at 5 µM came to 78.4 ± 6.4%.
For `COc1cc(-c2cc(C)cc(-c3ccc(COc4c(CNCCNC(C)=O)cccc4OC)c(OC)c3)c2)ccc1COc1c(CNCCNC(C)=O)cccc1OC` [Compound 6a, N,N’-(((((((3,3′′-dimethoxy-5′-methyl-[1,1′:3′,1′′-terphenyl]-4,4′′-diyl)bis(methylene))bis(oxy))bis(3-methoxy-2,1-phenylene))bis(methylene))bis(azanediyl))bis(ethane-2,1-diyl))diacetamide], the inhibition at 0.5 µM is 86.1 ± 4.5% and the inhibition at 5 µM was 59.2 ± 2.6%.
Regarding `COc1cc(-c2cccc(-c3ccc(COc4ccc(CNCCNC(C)=O)cc4OC)c(OC)c3)c2C)ccc1COc1ccc(CNCCNC(C)=O)cc1OC` [Compound 7a, N,N’-(((((((3,3′′-dimethoxy-2′-methyl-[1,1′:3′,1′′-terphenyl]-4,4′′-diyl)bis(methylene))bis(oxy))bis(3-methoxy-4,1-phenylene))bis(methylene))bis(azanediyl))bis(ethane-2,1-diyl))diacetamide], the inhibition at 0.5 µM was 72.5 ± 8.1% and the inhibition at 5 µM worked out at 23.8 ± 0.3%.
